Results published in the supplement of paper PMC10307832.

Columns and labels:
Assay in all cases: relative viability (nuclei count vs DMSO), 5 days (fraction); higher = more cells survive
[1] = compound: C#Cc1cccc(Nc2ncnc3cc(OCCOC)c(OCCOC)cc23)c1 [Erlotinib] + CC1(C)CCC(c2ccc(Cl)cc2)=C(CN2CCN(c3ccc(C(=O)NS(=O)(=O)c4ccc(N[C@H](CCN5CCOCC5)CSc5ccccc5)c(S(=O)(=O)C(F)(F)F)c4)cc3)CC2)C1 [Navitoclax] (partner 0.5 µM)
In short: (§1)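 Relative viability divides the nuclei count in treated wells by that in vehicle wells. Lung cancer cell lines were seeded in 1536-well plates, dosed by pin tool the next day, and fixed and stained after 5 days in one step with final 0.05% Triton X-100, 1% formaldehyde and 1 ug/ml Hoechst. Dosing was a single drug or a fixed anchor-drug dose plus five library-drug doses (not always all listed) in √10 steps, and values are medians of duplicate plates imaged at 4×.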

[2] = compound: C#Cc1cccc(Nc2ncnc3cc(OCCOC)c(OCCOC)cc23)c1 [Erlotinib] + CC(=O)c1c(C)c2cnc(Nc3ccc(N4CCNCC4)cn3)nc2n(C2CCCC2)c1=O [Palbociclib] (partner 0.5 µM)
In short: as §1

[3] = compound: O=C(Nc1c[nH]nc1-c1nc2ccc(CN3CCOCC3)cc2[nH]1)NC1CC1 [AT9283] + NC(=O)Nc1cc(-c2cccc(F)c2)sc1C(=O)N[C@H]1CCCNC1 [AZD7762] (partner 0.2 µM)
In short: as §1

[4] = compound: C#Cc1cccc(Nc2ncnc3cc(OCCOC)c(OCCOC)cc23)c1 [Erlotinib] + O=C(CCCCCCC(=O)Nc1ccccc1)NO [Vorinostat] (partner 1 µM)
In short: as §1

[5] = compound: O=C(Nc1c[nH]nc1-c1nc2ccc(CN3CCOCC3)cc2[nH]1)NC1CC1 [AT9283] + O=C(CCCCCCC(=O)Nc1ccccc1)NO [Vorinostat] (partner 1 µM)
In short: as §1

NCI-H441
relative viability ([1]; first compound 0.02 µM): 1.03
relative viability ([1]; first compound 0.2 µM): 0.805
relative viability ([1]; first compound 0.6325 µM): 0.555
relative viability ([1]; first compound 2 µM): 0.302
relative viability ([2]; first compound 0.02 µM): 0.196
relative viability ([2]; first compound 0.2 µM): 0.212
relative viability ([2]; first compound 0.6325 µM): 0.177
relative viability ([2]; first compound 2 µM): 0.186
relative viability ([3]; first compound 0.003 µM): 1.06
relative viability ([3]; first compound 0.03 µM): 1.1
relative viability ([3]; first compound 0.09487 µM): 0.894
relative viability ([3]; first compound 0.3 µM): 0.633
relative viability ([4]; first compound 0.02 µM): 0.841
relative viability ([4]; first compound 0.2 µM): 0.725
relative viability ([4]; first compound 0.6325 µM): 0.84
relative viability ([4]; first compound 2 µM): 0.745
relative viability ([5]; first compound 0.003 µM): 0.698
relative viability ([5]; first compound 0.03 µM): 0.499
relative viability ([5]; first compound 0.09487 µM): 0.669
relative viability ([5]; first compound 0.3 µM): 0.307
